In PubChem BioAssay AID248 (DTP/NCI, 2004) one finds T/C data, which are given here for 25 compounds.

Where “and” joins values, the source holds several entries; their conditions need not be identical. Identical values can stand only once. Toxic doses and inconclusive results are not listed.

The test system of the experiment is L1210 leukemia ip in BDF1 mice, survival T/C. The experiment can be described thus: NCI In Vivo Anticancer Drug Screen. Data for tumor model L1210 Leukemia (intraperitoneal) in B6D2F1 (BDF1) mice. Conditions: endpoint: mean survival time, higher = longer survival. In a few lines:
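Transplanted-tumor mice were given test agent; controls received vehicle only. Survival readings from the two groups were divided (treated over control).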

Setting [1] is: dose: 100.0 mg/kg/injection, schedule: Q04DX003 (ip), vehicle: Klucel (hydroxypropylcellulose) (HPC).
[2] abbreviates: dose: 200.0 mg/kg/injection, schedule: Q04DX003 (ip), vehicle: Klucel (hydroxypropylcellulose) (HPC).
Where [3] appears, read: dose: 100.0 mg/kg/injection, schedule: Q01DX009 (ip), vehicle: saline with Tween-80.
Setting [4] is: dose: 200.0 mg/kg/injection, schedule: Q01DX009 (ip), vehicle: saline with Tween-80.
[5] abbreviates: dose: 400.0 mg/kg/injection, schedule: Q01DX009 (ip), vehicle: saline with Tween-80.
Setting [6] is: dose: 100.0 mg/kg/injection, schedule: Q04DX003 (ip), vehicle: saline.
Where [7] appears, read: dose: 200.0 mg/kg/injection, schedule: Q04DX003 (ip), vehicle: saline.
Where [8] appears, read: dose: 400.0 mg/kg/injection, schedule: Q04DX003 (ip), vehicle: saline.
The mark [9] stands for this setting: dose: 400.0 mg/kg/injection, schedule: Q04DX003 (ip), vehicle: Klucel (hydroxypropylcellulose) (HPC).
Setting [10] is: dose: 100.0 mg/kg/injection, schedule: Q04DX002 (ip), vehicle: saline.
[11] abbreviates: dose: 200.0 mg/kg/injection, schedule: Q04DX002 (ip), vehicle: saline.
The mark [12] stands for this setting: dose: 400.0 mg/kg/injection, schedule: Q04DX002 (ip), vehicle: saline.
Setting [13] is: dose: 100.0 mg/kg/injection, schedule: Q01DX001 (ip), vehicle: saline.
The mark [14] stands for this setting: dose: 200.0 mg/kg/injection, schedule: Q01DX001 (ip), vehicle: saline.
[15] abbreviates: dose: 400.0 mg/kg/injection, schedule: Q01DX001 (ip), vehicle: saline.
The mark [16] stands for this setting: dose: 100.0 mg/kg/injection, schedule: Q04DX003 (ip), vehicle: saline with Tween-80.
The mark [17] stands for this setting: dose: 100.0 mg/kg/injection, schedule: Q01DX009 (ip), vehicle: saline.
The mark [18] stands for this setting: dose: 200.0 mg/kg/injection, schedule: Q01DX009 (ip), vehicle: saline.
[19] abbreviates: dose: 400.0 mg/kg/injection, schedule: Q01DX009 (ip), vehicle: saline.

As to `Oc1cccc2cccnc12`, the T/C (dose: 100.0 mg/kg/injection, schedule: Q01DX001 (ip), vehicle: carboxymethylcellulose (CMC)) is 100 % of control and the T/C (dose: 400.0 mg/kg/injection, schedule: Q01DX001 (ip), vehicle: carboxymethylcellulose (CMC)) is 96 % of control.
On to `Clc1ccc2sc3c(c2c1)CCNC3`, for which the T/C runs as follows: (dose: 12.5 mg/kg/injection, schedule: Q01DX009 (ip), vehicle: Klucel (hydroxypropylcellulose) (HPC)) 94 % of control; (dose: 25.0 mg/kg/injection, schedule: Q01DX009 (ip), vehicle: Klucel (hydroxypropylcellulose) (HPC)) 97 % of control; (dose: 25.0 mg/kg/injection, schedule: Q04DX003 (ip), vehicle: Klucel (hydroxypropylcellulose) (HPC)) 97 % of control; (dose: 50.0 mg/kg/injection, schedule: Q01DX009 (ip), vehicle: Klucel (hydroxypropylcellulose) (HPC)) 90 % of control; (dose: 100.0 mg/kg/injection, schedule: Q01DX009 (ip), vehicle: Klucel (hydroxypropylcellulose) (HPC)) 101 % of control; under setting [1], 92 % of control. Further, the T/C was 95 % of control (dose: 200.0 mg/kg/injection, schedule: Q01DX009 (ip), vehicle: Klucel (hydroxypropylcellulose) (HPC)) and 92 % of control under setting [2].
Regarding `CC(C)(C)c1ccc(OCC(=O)O)c(Cl)c1`, the T/C was 91 % of control under setting [3] and 101 % of control under setting [4].
For `Nc1cc(N)c([N+](=O)[O-])cc1[N+](=O)[O-]`, the T/C under setting [3] was 98 % of control, the T/C under setting [4] was 93 % of control and the T/C under setting [5] is 98 % of control.
Regarding `CC12C=CC3(CCC4C(C)(C)C(O[N+](=O)[O-])C(=O)CC4(C)C3CC1=O)C2` (stereo not given), the T/C reads like this: (dose: 75.0 mg/kg/injection, schedule: Q01DX009 (ip), vehicle: Klucel (hydroxypropylcellulose) (HPC)) 108 % of control; (dose: 100.0 mg/kg/injection, schedule: Q01DX001 (ip), vehicle: Klucel (hydroxypropylcellulose) (HPC)) 92 % of control; (dose: 150.0 mg/kg/injection, schedule: Q01DX009 (ip), vehicle: Klucel (hydroxypropylcellulose) (HPC)) 100 % of control; (dose: 200.0 mg/kg/injection, schedule: Q01DX001 (ip), vehicle: Klucel (hydroxypropylcellulose) (HPC)) 95 % of control; (dose: 300.0 mg/kg/injection, schedule: Q01DX009 (ip), vehicle: Klucel (hydroxypropylcellulose) (HPC)) 98 % of control; (dose: 400.0 mg/kg/injection, schedule: Q01DX001 (ip), vehicle: Klucel (hydroxypropylcellulose) (HPC)) 88 % of control.
`Cc1nccc(Cl)n1`: the T/C is 104 % of control under setting [6], 90 % of control under setting [7] and 93 % of control under setting [8].
As to `OC1CCN(C2(c3ccccc3)CCCCC2)CC1`, the T/C reads like this: (dose: 100.0 mg/kg/injection, schedule: Q04DX002 (ip), vehicle: Klucel (hydroxypropylcellulose) (HPC)) 104 % of control; (dose: 200.0 mg/kg/injection, schedule: Q04DX002 (ip), vehicle: Klucel (hydroxypropylcellulose) (HPC)) 86 % of control.
Take `Cc1ccc(SC(=O)Cc2ccc([N+](=O)[O-])cc2)cc1`: the T/C is 97 % of control under setting [3], 86 % of control under setting [4] and 93 % of control under setting [5].
Take `CC1(O)c2ccccc2-c2c1n([O-])c1ccccc1[n+]2=O` (stereo not given): the T/C (dose: 100.0 mg/kg/injection, schedule: Q04DX003 (ip), vehicle: saline sonified) is 111 % of control; the T/C (dose: 200.0 mg/kg/injection, schedule: Q04DX003 (ip), vehicle: saline sonified) is 100 % of control; the T/C (dose: 400.0 mg/kg/injection, schedule: Q04DX003 (ip), vehicle: saline sonified) is 89 % of control.
Consider `O=C(CCCCOc1ccc([N+](=O)[O-])cc1Cl)Nc1ccc(S(=O)(=O)F)cc1`, for which the T/C is 97 % of control under setting [1], 90 % of control under setting [2] and 90 % of control under setting [9].
With `O=CC(=O)c1ccc(O)cc1`, the T/C (dose: 50.0 mg/kg/injection, schedule: Q01DX009 (ip), vehicle: saline sonified) was 114 % of control; the T/C (dose: 50.0 mg/kg/injection, schedule: Q04DX003 (ip), vehicle: saline) was 111 % of control; the T/C (dose: 66.0 mg/kg/injection, schedule: Q04DX003 (ip), vehicle: saline) is 97 % of control; the T/C (dose: 100.0 mg/kg/injection, schedule: Q01DX009 (ip), vehicle: saline sonified) is 119 % of control; the T/C under setting [6] is 103 % of control and 111 % of control; the T/C (dose: 150.0 mg/kg/injection, schedule: Q04DX003 (ip), vehicle: saline) was 103 % of control. Besides, the T/C under setting [7] is 117 % of control.
For `COC(=O)c1ccc(S(=O)(=O)O)cc1[N+](=O)[O-]`, the T/C under setting [10] is 100 % of control, the T/C under setting [11] is 88 % of control and the T/C under setting [12] was 96 % of control.
As to `COc1ccc(CCCCC(=O)O)cc1O`, the T/C under setting [13] was 103 % of control, the T/C under setting [14] is 103 % of control and the T/C under setting [15] is 107 % of control.
Consider `O=C(NNC(=O)Nc1ccc(C2=NCCN2)cc1)Nc1ccc(C2=NCCN2)cc1`, for which the T/C (dose: 8.0 mg/kg/injection, schedule: Q01DX Z (ip), vehicle: carboxymethylcellulose (CMC)) was 95 % of control; the T/C (dose: 16.0 mg/kg/injection, schedule: Q01DX Z (ip), vehicle: carboxymethylcellulose (CMC)) is 98 % of control; the T/C (dose: 32.0 mg/kg/injection, schedule: Q01DX Z (ip), vehicle: carboxymethylcellulose (CMC)) is 108 % of control; the T/C (dose: 64.0 mg/kg/injection, schedule: Q01DX Z (ip), vehicle: carboxymethylcellulose (CMC)) is 165 % of control.
Turning to `CC1(C)Oc2ccccc2O1`, the T/C under setting [16] was 93 % of control.
`c1ccc(-c2cccc3c2N=C2C3=Nc3c2cccc3-c2ccccc2)cc1`: the T/C was 96 % of control under setting [1], 95 % of control under setting [2] and 93 % of control under setting [9].
For `Nc1ncnc2c1ncn2CCCNC(=O)c1cc([N+](=O)[O-])cc([N+](=O)[O-])c1`, the T/C reads like this: under setting [17], 103 % of control; under setting [18], 96 % of control; under setting [19], 90 % of control.
Consider `COCCOCCOC(C)Oc1ccc(C(=O)OC)cc1` (stereo not given), for which the T/C is 105 % of control under setting [10], 92 % of control under setting [11] and 108 % of control under setting [12].
With `Cn1[nH]c(=S)c(=O)[nH]c1=O`, the T/C under setting [13] was 111 % of control, the T/C under setting [14] was 106 % of control and the T/C under setting [15] is 101 % of control.
Regarding `[O-][n+]1c(Cl)cccc1Cl`, the T/C (dose: 15.0 mg/kg/injection, schedule: Q01DX001 (ip), vehicle: carboxymethylcellulose (CMC)) is 103 % of control; the T/C (dose: 30.0 mg/kg/injection, schedule: Q01DX001 (ip), vehicle: carboxymethylcellulose (CMC)) was 112 % of control; the T/C (dose: 60.0 mg/kg/injection, schedule: Q01DX001 (ip), vehicle: carboxymethylcellulose (CMC)) was 105 % of control.
As for `O=C1OCCN1NCc1ccc([N+](=O)[O-])o1`, the T/C under setting [13] is 92 % of control, the T/C under setting [14] was 103 % of control and the T/C under setting [15] is 101 % of control.
`CN(C)C(=O)c1cccc(NC(=O)NCc2cccc(N3C(N)=NC(N)=NC3(C)C)c2)c1`: the T/C reads like this: under setting [3], 91 % of control; under setting [16], 97 % of control.
With `CCOC(=O)C(Nc1ccccc1)C(=O)OCC`, the T/C was 92 % of control under setting [16]; 97 % of control (dose: 200.0 mg/kg/injection, schedule: Q04DX003 (ip), vehicle: saline with Tween-80); 100 % of control (dose: 400.0 mg/kg/injection, schedule: Q04DX003 (ip), vehicle: saline with Tween-80).
Consider `COc1ccc(N=C2OC(=O)c3ccccc32)cc1`, for which the T/C reads like this: under setting [17], 91 % of control; under setting [6], 94 % of control; under setting [18], 100 % of control; under setting [7], 103 % of control; under setting [19], 89 % of control; under setting [8], 92 % of control.
As for `Cc1ccc(N=N/C(=N\Nc2ccc(C)cc2)[N+](=O)[O-])cc1`, the T/C was 90 % of control (dose: 75.0 mg/kg/injection, schedule: Q01DX001 (ip), vehicle: acetone); 94 % of control and 86 % of control and 89 % of control (dose: 150.0 mg/kg/injection, schedule: Q01DX001 (ip), vehicle: acetone); 93 % of control and 87 % of control and 88 % of control (dose: 300.0 mg/kg/injection, schedule: Q01DX001 (ip), vehicle: acetone).
